Results published in the supplement of paper PMC10307832.

Legend:
Assay in all cases: relative viability (nuclei count vs DMSO), 5 days (fraction); higher = more cells survive
A-427 = test system: A-427
In short: (§1)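 Relative viability equals treated-well nuclei counts divided by vehicle-well nuclei counts. Counts came from 4× images of lung cancer cell lines grown in 1536-well plates for 5 days after pin-tool dosing on the day after seeding. Dosing used one drug alone or a fixed anchor-drug dose plus five library-drug doses (not always all listed) in √10 steps, and values are medians of duplicate plates.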

ChaGo-K-1 = test system: ChaGo-K-1
In short: as §1

EKVX = test system: EKVX
In short: as §1

H3255 = test system: H3255
In short: as §1

LK-2 = test system: LK-2
In short: as §1

NCI-H1355 = test system: NCI-H1355
In short: as §1

NCI-H1666 = test system: NCI-H1666
In short: as §1

NCI-H1755 = test system: NCI-H1755
In short: as §1

NCI-H1944 = test system: NCI-H1944
In short: as §1

NCI-H2085 = test system: NCI-H2085
In short: as §1

NCI-H2347 = test system: NCI-H2347
In short: as §1

NCI-H3122 = test system: NCI-H3122
In short: as §1

NCI-H322M = test system: NCI-H322M
In short: as §1

NCI-H358 = test system: NCI-H358
In short: as §1

NCI-H441 = test system: NCI-H441
In short: as §1

NCI-H460 = test system: NCI-H460
In short: as §1

NCI-H596 = test system: NCI-H596
In short: as §1

NCI-H650 = test system: NCI-H650
In short: as §1

NCI-H838 = test system: NCI-H838
In short: as §1

Q: Which results are given for `O=C(O)CCCCC(CCSCc1ccccc1)SCc1ccccc1` (centres undefined) [CPI-613] + NC(=O)Nc1cc(-c2cccc(F)c2)sc1C(=O)N[C@H]1CCCNC1 [AZD7762] (partner 0.2 µM)?
A: relative viability (A-427; first compound 5 µM): 0.66; relative viability (A-427; first compound 15.81 µM): 0.642; relative viability (A-427; first compound 50 µM): 0.661; relative viability (A-427; first compound 158.11 µM): 0.326; relative viability (A-427; first compound 500 µM): 0.173; relative viability (ChaGo-K-1; first compound 5 µM): 0.827; relative viability (ChaGo-K-1; first compound 15.81 µM): 0.778; relative viability (ChaGo-K-1; first compound 50 µM): 0.85; relative viability (ChaGo-K-1; first compound 158.11 µM): 0.536; relative viability (ChaGo-K-1; first compound 500 µM): 0.436; relative viability (EKVX; first compound 5 µM): 0.731; relative viability (EKVX; first compound 15.81 µM): 0.646; relative viability (EKVX; first compound 50 µM): 0.505; relative viability (EKVX; first compound 500 µM): 0.62; relative viability (H3255; first compound 5 µM): 0.816; relative viability (H3255; first compound 15.81 µM): 0.847; relative viability (H3255; first compound 50 µM): 0.833; relative viability (H3255; first compound 158.11 µM): 0.733; relative viability (H3255; first compound 500 µM): 0.853; relative viability (LK-2; first compound 5 µM): 0.408; relative viability (LK-2; first compound 15.81 µM): 0.359; relative viability (LK-2; first compound 50 µM): 0.343; relative viability (LK-2; first compound 158.11 µM): 0.355; relative viability (LK-2; first compound 500 µM): 0.289; relative viability (NCI-H1355; first compound 5 µM): 0.721; relative viability (NCI-H1355; first compound 15.81 µM): 0.741; relative viability (NCI-H1355; first compound 50 µM): 0.772; relative viability (NCI-H1355; first compound 158.11 µM): 0.52; relative viability (NCI-H1355; first compound 500 µM): 0.185; relative viability (NCI-H1666; first compound 5 µM): 0.911; relative viability (NCI-H1666; first compound 15.81 µM): 0.821; relative viability (NCI-H1666; first compound 50 µM): 0.761; relative viability (NCI-H1666; first compound 158.11 µM): 0.376; relative viability (NCI-H1666; first compound 500 µM): 0.553; relative viability (NCI-H1755; first compound 5 µM): 0.383; relative viability (NCI-H1755; first compound 15.81 µM): 0.4; relative viability (NCI-H1755; first compound 50 µM): 0.319; relative viability (NCI-H1755; first compound 158.11 µM): 0.397; relative viability (NCI-H1755; first compound 500 µM): 0.375; relative viability (NCI-H1944; first compound 5 µM): 0.511; relative viability (NCI-H1944; first compound 15.81 µM): 0.487; relative viability (NCI-H1944; first compound 50 µM): 0.473; relative viability (NCI-H1944; first compound 158.11 µM): 0.307; relative viability (NCI-H1944; first compound 500 µM): 0.345; relative viability (NCI-H2085; first compound 5 µM): 0.895; relative viability (NCI-H2085; first compound 15.81 µM): 0.785; relative viability (NCI-H2085; first compound 50 µM): 0.895; relative viability (NCI-H2085; first compound 158.11 µM): 0.856; relative viability (NCI-H2085; first compound 500 µM): 0.209; relative viability (NCI-H2347; first compound 5 µM): 0.735; relative viability (NCI-H2347; first compound 15.81 µM): 0.787; relative viability (NCI-H2347; first compound 50 µM): 0.715; relative viability (NCI-H2347; first compound 158.11 µM): 0.718; relative viability (NCI-H2347; first compound 500 µM): 0.435; relative viability (NCI-H3122; first compound 5 µM): 0.989; relative viability (NCI-H3122; first compound 15.81 µM): 0.977; relative viability (NCI-H3122; first compound 50 µM): 1.01; relative viability (NCI-H3122; first compound 158.11 µM): 0.973; relative viability (NCI-H3122; first compound 500 µM): 0.842; relative viability (NCI-H322M; first compound 5 µM): 0.547; relative viability (NCI-H322M; first compound 15.81 µM): 0.508; relative viability (NCI-H322M; first compound 50 µM): 0.606; relative viability (NCI-H322M; first compound 158.11 µM): 0.638; relative viability (NCI-H322M; first compound 500 µM): 0.269; relative viability (NCI-H358; first compound 5 µM): 0.569; relative viability (NCI-H358; first compound 15.81 µM): 0.451; relative viability (NCI-H358; first compound 50 µM): 0.474; relative viability (NCI-H358; first compound 158.11 µM): 0.438; relative viability (NCI-H358; first compound 500 µM): 0.56; relative viability (NCI-H441; first compound 5 µM): 1.09; relative viability (NCI-H441; first compound 15.81 µM): 0.803; relative viability (NCI-H441; first compound 50 µM): 1.39; relative viability (NCI-H441; first compound 158.11 µM): 0.788; relative viability (NCI-H441; first compound 500 µM): 0.0052; relative viability (NCI-H460; first compound 5 µM): 0.633; relative viability (NCI-H460; first compound 15.81 µM): 0.529; relative viability (NCI-H460; first compound 50 µM): 0.613; relative viability (NCI-H460; first compound 158.11 µM): 0.418; relative viability (NCI-H460; first compound 500 µM): 0.291; relative viability (NCI-H596; first compound 5 µM): 1.16; relative viability (NCI-H596; first compound 15.81 µM): 0.939; relative viability (NCI-H596; first compound 50 µM): 1.11; relative viability (NCI-H596; first compound 158.11 µM): 0.818; relative viability (NCI-H596; first compound 500 µM): 0.0374; relative viability (NCI-H650; first compound 5 µM): 1.01; relative viability (NCI-H650; first compound 15.81 µM): 0.925; relative viability (NCI-H650; first compound 50 µM): 1.03; relative viability (NCI-H650; first compound 158.11 µM): 0.49; relative viability (NCI-H650; first compound 500 µM): 0.655; relative viability (NCI-H838; first compound 5 µM): 0.977; relative viability (NCI-H838; first compound 15.81 µM): 0.935; relative viability (NCI-H838; first compound 50 µM): 0.893; relative viability (NCI-H838; first compound 158.11 µM): 0.844; relative viability (NCI-H838; first compound 500 µM): 0.912
